Measured values: US20250163076A1, “SYNTHESIS OF BRUTON'S TYROSINE KINASE INHIBITORS” (JANSSEN PHARMACEUTICA NV, priority 2022, published 2025)
Converted amounts (≈) assume the structure as drawn. Read-outs that look alike come from different tables or passages of the source.

How the values were obtained:
[1] = Liver microsomes T1/2 (Table 3); format: in vitro ADME; settings: species not given
[2] = Rat oral bioavailability (% F); format: in vivo; settings: for bioavailability: in vivo, oral
[3] = test system: anti-IgM induced B cell activation in human whole blood; experiment: Human whole blood assay, anti-IgM induced B cell activation; format: cell-based; settings: anti-IgM stimulation
Description: (§1) The activity of Compound M was assessed in rat and human whole blood assays using anti-IgD and anti-IgM stimulation, respectively, to trigger B-cell activation via B-cell receptor.

[4] = test system: B-cell activation via B-cell receptor in rat whole blood; experiment: Rat whole blood assay, anti-IgD stimulated B-cell activation; format: cell-based; settings: for IC50: Rattus norvegicus, B-cell, anti-IgD stimulation
Description: as §1

[5] = human, plasma
[6] = Aqueous solubility at pH 2 and pH 7; format: physicochemical; settings: for Solubility: aqueous medium, Table 5
BTK = BTK (Homo sapiens, UniProt Q06187); experiment: BTK covalent inhibition kinetics (KI, kinact, kinact/KI); format: biochemical
Sequence of BTK (Q06187 whole entry): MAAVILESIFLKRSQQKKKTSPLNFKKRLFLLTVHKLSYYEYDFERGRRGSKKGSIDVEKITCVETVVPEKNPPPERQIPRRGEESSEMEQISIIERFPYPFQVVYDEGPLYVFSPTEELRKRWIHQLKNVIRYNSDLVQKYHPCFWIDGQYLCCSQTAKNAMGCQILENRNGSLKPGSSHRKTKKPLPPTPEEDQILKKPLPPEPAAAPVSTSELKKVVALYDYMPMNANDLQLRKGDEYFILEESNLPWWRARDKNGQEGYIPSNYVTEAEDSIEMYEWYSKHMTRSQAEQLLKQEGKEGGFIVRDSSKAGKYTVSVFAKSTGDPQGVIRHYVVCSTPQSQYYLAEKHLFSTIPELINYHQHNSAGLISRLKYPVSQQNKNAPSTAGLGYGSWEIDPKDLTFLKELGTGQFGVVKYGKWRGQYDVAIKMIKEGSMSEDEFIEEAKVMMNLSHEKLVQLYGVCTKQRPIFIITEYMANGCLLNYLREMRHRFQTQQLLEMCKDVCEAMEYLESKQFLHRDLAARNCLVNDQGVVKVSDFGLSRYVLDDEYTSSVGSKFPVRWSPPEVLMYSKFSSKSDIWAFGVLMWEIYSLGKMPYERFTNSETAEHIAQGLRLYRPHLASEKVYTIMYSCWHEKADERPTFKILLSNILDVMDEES
Description: The development of the structure-activity relationship was conducted by characterizing the non-covalent affinity of each inhibitor for BTK (KI) and the first order rate constant for irreversible covalent bond formation (kinact). The second order rate constant kinact/KI ratio is used to assess the covalent inhibitor potency because it is independent of incubation time and substrate concentrations (Copeland, R. A. Evaluation of Enzyme Inhibitors in Drug Discovery: a Guide for Medicinal Chemists and Pharmacologists; 2nd ed.; Wiley: Hoboken, N.J., 2013).

[7] = Epimerization kinetics / rotational energy barrier of atropisomers in solvents; format: physicochemical; settings: buffer, t1/2 at 100° C.
[8] = as above; format: physicochemical
Description: The rotational energy barrier of compound of Formula (II) atropisomers was estimated according to the method known in the art. The rotational barrier was determined in several solvents and their aqueous mixtures and the results are reported in Table 13, where an average value of 120.5 kJ mol^−1 or 28.8 kcal mol^−1, corresponding to epimerization half-lives of 63.8 and 4.0 months at 20° C. and 37° C., respectively, were obtained, placing this compound on the top segment of Class 2 atropisomers according to the classification systems known in the art. The rotational barrier is slightly influenced by the solvent and increases in the order 1-butanol<2-butanol<1-propanol<propylene carbonate. Additionally, increasing amounts of water increased substantially the rotational barrier in all solvents with the highest value obtained in 1-propanol/water 33/67 w/w % system. Unfortunately, due to the low aqueous solubility of compound of Formula (II) in water, epimerization studies could not be accurately conducted in pure water.
Enriched compound of Formula (II) of the P isomer was dissolved in the respective solvent to create a concentration of ˜1 wt % and was placed in a standard screw cap vial (1.8 mL) equipped with a magnetic stirring bar. Subsequently, the vial was placed in the heating block of a parallel reactor setup (Crystal16, Technobis B.V.) which was preheated to the desired temperature (80° C.-100° C., depending on the solvent). At given time intervals, small aliquot samples were taken in an HPLC vial, diluted, and the diastereomeric excess of the mixture was determined by an UPLC apparatus, equipped with an Acquity UPLC BEH C18 column (0.6 ml/min, gradient 10 mM ammonium acetate acetonitrile 95-5 v/v % and acetonitrile at 35° C.). The time points and corresponding decay of diastereomeric excess (d.e.) were plotted as t vs ln (1/d.e.) to determine the interconversion rate constant, rotational energy barrier and epimerization half-life at the respective solvent and temperature:
[formula] [formula] [formula] • where [P], [M] are the concentrations of the P and M isomers, respectively, ke is the interconversion rate constant (s^−1), ΔGe^‡ is the rotational energy barrier (KJ mol^−1), T is the absolute temperature, kB, h and R are the Boltzmann, Planck and universal gas constants, respectively and t1/2 is the epimerization half-life. An example of the data treatment and determination procedure for ke is shown in FIG. 9 for propylene carbonate system at 100° C.

Mouse CD69 cell = experiment: Mouse CD69 splenocyte assay; format: cell-based
PPB % free, cyno = format: in vitro ADME; settings: cynomolgus monkey, plasma
PPB % free, dog = format: in vitro ADME; settings: plasma
PPB % free, rat = format: in vitro ADME; settings: plasma
[9] = Human liver microsomes T1/2; format: in vitro ADME; settings: human, liver microsomes; Table 5
PPB % free, human = settings: plasma
[10] = Table 5, average of 2 independent determinations (± SD)

With `C=CC(=O)N1CC[C@@H](NC(=O)c2sc3nccc4c3c2NC(=O)N4c2ccc(Oc3ccccc3)cc2C)C1` [Compound A] the “Liver microsomes T1/2” value ([1]; first of the two values printed 23/40) was 0.016 days, the half-life ([1]; liver microsomes, second of the two values printed 23/40) was 0.0278 days and the “Rat % F (1 g/kg, crystalline suspension)” value ([2]; 1 g/kg, crystalline suspension) was less than 1%. The bioavailability ([2]; 1 g/kg, crystalline suspension, read-out: Rat % F (1 g/kg, crystalline suspension)) was less than 1%, the bioavailability ([2]; 20% HP-β-CD solution, read-out: Rat % F (20% HP-β-CD solution)) was 29.7% and the IC50 [3] was 84 ± 39 nM. For the same molecule, the IC50 [4] was 130 ± 11 nM, the PPB % free [5] was 0.16% and the “pH 2 solubility” value ([6]; Table 3, pH 2) was <4/<4 μM. For the same molecule, the “pH 7 solubility” value ([6]; Table 3, pH 7) was <4/<4 μM, the “pH 2 solubility” value ([6]; Table 6, pH 2) was <4/<4 μM and the “pH 7 solubility” value ([6]; Table 6, pH 7) was <4/<4 μM. It also gave a Ki (BTK; Table 3, average of two independent determinations (±SD)) of 28.8 ± 21 nM.

`C=CC(=O)N[C@H]1CCC[C@H]1NC(=O)c1sc2nccc3c2c1NC(=O)N3c1cnc(CC(C)C)cc1C` [Formula (II), N-((1R,2S)-2-acrylamidocyclopentyl)-5-(6-isobutyl-4-methylpyridin-3-yl)-4-oxo-4,5-dihydro-3H-1-thia-3,5,8-triazaacenaphthylene-2-carboxamide] showed a half-life [7] of 0.0299 days, a ΔG ([8]; 1-butanol) of 28.49 kcal/mol and a half-life ([8]; 1-butanol, t1/2 at 20° C.) of 1100 days. For the same molecule, the ΔG ([8]; 1-butanol/water 85/15 w/w %) was 28.68 kcal/mol, the half-life ([8]; 1-butanol/water 85/15 w/w %, t1/2 at 20° C.) was 1460 days and the ΔG ([8]; 1-propanol) was 28.7 kcal/mol. For the same molecule, the half-life ([8]; 1-propanol, t1/2 at 20° C.) was 1460 days, the ΔG ([8]; 1-propanol/water 33/67 w/w %) was 29.09 kcal/mol and the half-life ([8]; 1-propanol/water 33/67 w/w %, t1/2 at 20° C.) was 3290 days. For the same molecule, the ΔG ([8]; 1-propanol/water 50/50 w/w %) was 28.97 kcal/mol, the half-life ([8]; 1-propanol/water 50/50 w/w %, t1/2 at 20° C.) was 2560 days and the ΔG ([8]; 1-propanol/water 67/33 w/w %) was 28.85 kcal/mol. It also gave a half-life ([8]; 1-propanol/water 67/33 w/w %, t1/2 at 20° C.) of 2190 days, a ΔG ([8]; 1-propanol/water 80/20 w/w %) of 28.82 kcal/mol and a half-life ([8]; 1-propanol/water 80/20 w/w %, t1/2 at 20° C.) of 2190 days. It also gave a ΔG ([8]; 2-MeTHF) of 28.54 kcal/mol, a half-life ([8]; 2-MeTHF, t1/2 at 20° C.) of 1100 days and a ΔG ([8]; 2-butanol) of 28.54 kcal/mol. The half-life ([8]; 2-butanol, t1/2 at 20° C.) was 1100 days, the ΔG ([8]; 2-butanol/water 70/30 w/w %) was 28.78 kcal/mol and the half-life ([8]; 2-butanol/water 70/30 w/w %, t1/2 at 20° C.) was 1830 days. The ΔG ([8]; 3-methyl-1-butanol) was 28.39 kcal/mol, the half-life ([8]; 3-methyl-1-butanol, t1/2 at 20° C.) was 1100 days and the ΔG ([8]; 3-methyl-1-butanol/water 91/9 w/w %) was 28.61 kcal/mol. For the same molecule, the half-life ([8]; 3-methyl-1-butanol/water 91/9 w/w %, t1/2 at 20° C.) was 1460 days, the ΔG ([8]; Acetonitrile) was 29.16 kcal/mol and the half-life ([8]; Acetonitrile, t1/2 at 20° C.) was 3650 days. It also gave a ΔG ([8]; EA) of 28.59 kcal/mol, a half-life ([8]; EA, t1/2 at 20° C.) of 1460 days and a ΔG ([8]; EtOH) of 28.99 kcal/mol. The half-life ([8]; EtOH, t1/2 at 20° C.) was 2560 days, the ΔG ([8]; IPA) was 28.87 kcal/mol and the half-life ([8]; IPA, t1/2 at 20° C.) was 2190 days. The ΔG ([8]; IPAC) was 28.73 kcal/mol, the half-life ([8]; IPAC, t1/2 at 20° C.) was 1830 days and the ΔG ([8]; MEK) was 28.8 kcal/mol. It also gave a half-life ([8]; MEK, t1/2 at 20° C.) of 1830 days, a ΔG ([8]; MIBK) of 28.54 kcal/mol and a half-life ([8]; MIBK, t1/2 at 20° C.) of 1100 days. It also gave a ΔG ([8]; Propylene carbonate) of 28.9 kcal/mol, a ΔG ([8]; Toluene) of 30.02 kcal/mol and a half-life ([8]; buffer, t1/2 at 85° C.) of 0.156 days. For the same molecule, the half-life ([8]; buffer, t1/2 at 120° C.) was 0.00417 days, the half-life ([8]; propylene carbonate, t1/2 at 20° C.) was 2190 days and the ΔG ([8]; propylene carbonate/water 93/7 w/w %) was 28.94 kcal/mol. The half-life ([8]; propylene carbonate/water 93/7 w/w %, t1/2 at 20° C.) was 2560 days.

For `C=CC(=O)N[C@H]1CCC[C@H]1NC(=O)c1sc2nccc3c2c1NC(=O)N3c1cnc(CC(C)C)cc1C` (single isomer, unassigned) [Compound M], the IC50 (Mouse CD69 cell) was 99 ± 68 nM, the IC50 [3] was 89 ± 12 nM and the IC50 [4] was 41 ± 12 nM. For the same molecule, the “more potent in rat whole blood” value ([4]; compared to Compound A) was 3 fold, the “pH 2 solubility” value ([6]; Table 6, pH 2) was 320 μM and the “pH 7 solubility” value ([6]; Table 6, pH 7) was 7 μM. For the same molecule, the Solubility ([6]; aqueous buffer, pH 7, read-out: Solubility pH 7) was 7 µM (≈ 3.63 µg/mL), the Solubility ([6]; simulated gastric fluid, pH 2, read-out: Solubility pH 2) was 320 µM (≈ 166 µg/mL) and the Ki (BTK; [10]) was 48.5 ± 2.9 nM. It also gave a kinact (BTK; [10]) of 0.000348 s⁻¹, a kinact/KI (BTK; Table 5, read-out: kinact/KI) of 7290 ± 590 M⁻¹ s⁻¹ and a fraction unbound (PPB % free, cyno) of 0.032. The fraction unbound (PPB % free, dog) was 0.063, the fraction unbound (PPB % free, rat) was 0.037 and the half-life [9] was 0.0264 days. The fraction unbound (PPB % free, human) was 0.031.
